We go through 1 compound from patent publication US6548540B2, “Method of treating cancer using dithiocarbamate derivatives” (Charlotte-Mecklenburg Hospital Authority, priority 1998, dated 2003).

The test system of one assay is cyclin A. The experiment in a line: Immunoblot for cyclin A in M1619 cells. The format is cell-based, human. As to conditions: 24 hours. The protocol: Cells were lysed and proteins were isolated and quantitated by immunoassay as previously detailed using 2 μg/ml of primary rabbit polyclonal antibodies against human bcl-2, p53, p21^WAF1/CiP1, cyclin A and cyclin B1, and peroxidase-labeled donkey polyclonal anti-rabbit IgG. Cells were placed on ice, washed twice with cold DPBS, scraped into 0.5 ml boiling buffer (10% [vol/vol] glycerol and 2% [wt/vol] sodium dodecyl sulfate [SDS] in 83 mM Tris, pH 6.8) and sheared by four passages through a pipette. Aliquots were removed for protein determination, using the BCA protein assay (Pierce). After 10% β-mercaptoethanol and 0.05% bromophenol blue were added, lysates were boiled for 5 min and stored at -80° C. until immunoblotting was performed. Proteins in defrosted samples were separated by SDS-polyacrylamide gel electrophoresis on 12% polyacrylamide gels (15 μg protein/lane) and electrotransferred to 0.45 μm Hybond ECL nitrocellulose membranes (Amersham Life Sciences) using the wet transblot method in transfer buffer (0.025 M Tris, 0.192 M glycine, 2.6 mM SDS, and 20%[vol/vol] methanol; pH 8.8) at 100 volts for 1 hour. Blots were blocked overnight at 4° C. with blocking buffer (PBS with 0.1% Tween 20) containing 5% fat-free milk powder (Carnation, Glendale, Calif.). After rinsing 5 times for 5 minutes each in PBS containing 0.1% Tween 20, blots were incubated for 1 hour at room temperature with 2.0 μg/ml of primary antibody. After rinsing again as above, blots were incubated for 1 hr at room temperature with horseradish peroxidase (HRP)-conjugated secondary antibody diluted 1:5,000 in blocking buffer. Immunoblots were rinsed again as above and detected via an enhanced chemiluminescence method (ECL Western blotting detection system, Amersham Life Science, Buckinghamshire, England). Autoradiographic film (X-OMAT AR, Eastman Kodak, Rochester, N.Y.) was exposed to immunoblots for 10, 30, or 60 seconds to obtain satisfactory images. Since disulfiram and copper disrupt transcription factor DNA binding to CRE, their effect on expression of cyclin A was studied. […]

The test system of assay [1] is Small cell lung carcinoma NCI-H82. The experiment in a line: MTT proliferation assay, small cell lung carcinoma. The format is cell-based. The settings on record: Homo sapiens, treatment initially, after 48 hours, 10% FBS, read-out: Mean Percent Inhibition of Growth. How it is done:
Human malignant cell lines were obtained from American Type Tissue Culture Collection (Rockville, Md.). Melanoma cells lines CRL 1585 and 1619 were cultured in RPMI 1640 (GIBCO-BRL, Life Technologies, Grand Island, N.Y.) with 10% FBS and passed with nonenzymatic Cell Dissociation Solution® (Sigma). The prostate adenocarcinoma cell line CRL 1435 (PC-3) was also cultured in RPMI 1640 with 10% FBS but passed with 0.05% trypsin and 0.53 mM EDTA. The squamous lung carcinoma NCI-H520 and the adenosquamous lung carcinoma NCI-H596 cell lines were grown in RPMI 1640 supplemented with 10% FBS, 10 mM HEPES and 1.0 mM sodium pyruvate and passed with trypsin/EDTA. The small cell lung carcinoma NCI-H82 was cultured as a suspension in RPMI 1640 with 10% FBS. All of the above were grown in a 37° C. humidified environment containing 5% CO2/air. The breast carcinoma cell line MDA-MB-453 was grown in a 37° C. humidified environment with free gas exchange with atmospheric air using Leibovitz's L-15 medium with 2 mM L-glutamine and 10% FBS and was passed with trypsin/EDTA.
The effect of disulfiram (0.15 to 5.0 μM), diethyldithiocarbamate (DDC, 1.0 μM) or PDTC (0.625 to 5.0 μM) on proliferation of malignant cell lines was studied in cultures stimulated with 10% FBS. Cell numbers were quantitated 24-72 hours later. In some experiments disulfiram or PDTC were added immediately after cells were plated. In other experiments, cells were plated and allowed to grow for 24-72 hours before fresh media with disulfiram or PDTC was added, and cell numbers were assayed 24-72 hours later. […]
Proliferation of cultured cells was quantitated using a previously reported calorimetric method based upon metabolic reduction of the soluble yellow tetrazolium dye 3-[4,5-dimethylthiazol]-2yl-2,5-diphenyl tetrazolium bromide (MTT) to its insoluble purple formazan by the action of mitochondrial succinyl dehydrogenase (See, e.g., S. J. Hirst, et al., “Quantifying proliferation of cultured human and rabbit airway smooth muscle in response to serum and platelet derived growth factor,” Am. J. Respir. Cell Mol. Biol. 7:574-581 (1992); R. Dashtaki, et al. R., supra; S. S. Brar, et al., “Requirement for reactive oxygen species in serum-induced and platelet-derived growth factor-induced growth of airway smooth muscle,” J. Biol. Chem. 274:20017-20026 (1999)). […] MTT-containing medium was removed, 0.5 ml dimethylsulfoxide (DMSO) was added to each well, and the absorbance of the solubilized purple formazan dye was measured at 540 nm. […]

Structures are written as SMILES.

For the compound `CCN(CC)C(=S)SSC(=S)N(CC)CC` [Disulfiram, tetraethylthiuram disulfide], the “cyclin A expression” value with cyclin A (disulfiram 5 μM alone) was “little effect”. In addition, the “reduction of cyclin A expression” value in the assay on cyclin A (disulfiram 5 μM plus CuSO4 1.6 μM) is “over two-thirds”. In addition, in assay [1] (disulfiram 0.625 μM), the inhibition at 0.625 µM amounted to 68 ± 3%. Further, the inhibition at 1.25 µM in assay [1] (disulfiram 1.25 μM) turned out to be 76 ± 6%. Besides, the inhibition at 2.5 µM in assay [1] (disulfiram 2.5 μM) amounted to 76 ± 5%. In addition, in assay [1] (disulfiram 5.0 μM), the inhibition at 5 µM amounted to 72 ± 3%.
